Experimental data as given in paper PMC9962372, “Antiparasitic Meroterpenoids Isolated from Memnoniella dichroa CF-080171” (Pharmaceutics, 2023).
Where two headings read alike, the source gives them in different places.

Columns and labels:
[1] = Cytotoxicity assay (resazurin) in L6 rat skeletal muscle cells; assay type: cell-based; details: L6 rat skeletal muscle cells (ATCC CRL-1458), read-out: Cytotoxic EC50 L6
Description: Seeding of the L6 cells was done in 96-well plates at 4 × 10^3 cells per well in 100 µL volume; they were then cultured for 24 h. Ten millimolar (10 mM) DMSO stocks of the compounds to be tested were used to prepare 16-point dose-response curves. Each concentration was evaluated in triplicate (using the cell culture medium as diluent) at a final volume of 300 µL (compound concentration range of 50–0.00152 µM and DMSO at 0.5 %). The spent growth medium from the 24 h-seeded cells was carefully replaced with 100 µL of the prepared working concentrations of the compounds to be tested and incubated for 72 h. The spent medium was again carefully replaced (without disturbing the layer of cells at the bottom of each well) with 100 µL fresh medium, after which 20 µL of 0.02% resazurin (previously diluted in 1X PBS) was added to the wells and incubated for 2 h in the dark at 37 °C. The plates were then shaken for 5 s, and fluorescence was read at 570–590 nm in a TECAN Infinite F200 fluorimeter.

T. cruzi Tulahuen C4 = assay: Transgenic T. cruzi β-D-galactosidase assay in infected L6 cells; assay type: cell-based, Trypanosoma cruzi; details: for EC50: 96 h, infected L6 host cells, β-galactosidase readout, read-out: Antiparasitic EC50 T. cruzi Tulahuen C4; for activity against T. cruzi Tulahuen (in words): whole parasites, extracts in HTS / bioassay-guided testing
Description: (§1) The EC50 of all the biological assays were computed with the Genedata Screener application (Genedata AG, Basel, Switzerland) using the equation below to calculate percentage inhibition: Percentage inhibition=[1−(Abswell−Absneg/Abspos−Absneg)]×100
(§2) Here, Abswell = absorbance/well, Abspos = average absorbance in positive control wells, and Absneg = average absorbance in negative wells.
The EC50 determinations of the isolated compounds were performed with 16-point dose-response curves. Each concentration was evaluated in triplicate (concentration range of 50–0.00152 µM) in the transgenic T. cruzi β-D-galactosidase assay as previously described by Annang et al., 2014 [27]. The T. cruzi Tulahuen strain used is a genetically modified strain that expresses the Escherichia coli β-galactosidase gene, lacZ [28]. It was kindly supplied by Marcel Kaiser (Swiss Tropical and Public Health Institute). The parasites were generally maintained in a growth medium (RPMI 1640 supplemented with 10% inactivated fetal bovine serum (iFBS), 100 µg/mL streptomycin, 100 U/mL penicillin, 2 mM L-glutamine) at 37 °C, 5% CO2. For the assay, transgenic trypomastigote stage parasites were used to infect L6 rat skeletal muscle cells (host). Fifty-five microliters (55 µL) of the infected L6 cell culture were dispensed into 384-well assay plates (2 × 10^3 infected L6 cells/well) containing 5 µL of the test compounds (parasite medium/10 µgmL^−1 benznidazole were used as positive/negative growth controls) and incubated for 96 h at 37 °C, after which 15 µL of assay solution (100 µM CRPG and 0.1% NP40 made up in PBS) were added to each well, and plates were further incubated in the dark for 4 h at 37 °C. Absorbance in the wells was read at 585 nm in an Envision plate reader (Perkin Elmer, Waltham, MA, USA).

P. falciparum 3D7 [2] = assay: P. falciparum 3D7 lactate dehydrogenase whole parasite assay; assay type: cell-based, Plasmodium falciparum; details: whole parasites; extracts in HTS / bioassay-guided testing
P. falciparum 3D7 [3] = assay: as above; assay type: cell-based, Plasmodium falciparum; details: for EC50: Plasmodium falciparum
Description: The EC50 determinations of the isolated compounds were performed with 16-point dose-response curves. Each concentration was evaluated in triplicate (concentration range of 100–0.00305 µM) using the P. falciparum 3D7 lactate dehydrogenase whole parasite assay as previously described by Pérez-Moreno et al., 2016 [25]. The Plasmodium falciparum 3D7 strain is a clone of the NF54 strain, which was previously isolated from a patient. The parasites were maintained in O^+ human erythrocytes at 5% haematocrit and 0.1–8% parasitaemia, with incubation at 37 °C, 1% O2, 5% CO2, and 94% N2 in complete medium (10.4 g/L RPMI 1640, 150 μM hypoxanthine, 12.5 μg/mL gentamicin, 0.2% NaHCO3, 0.5% albuMAX II, 2% human O^+ serum). The […] (LDH) assay was performed in 384-well plates using late-ring/early trophozoite synchronized parasites at 2% hematocrit and 0.25% parasitaemia. Twenty-five microliters of (25 µL) parasite culture were incubated with 5 µL of the test compounds (parasite medium/100 nM chloroquine used as positive/negative growth controls) for 72 h, after which the plates were frozen for 4 h, thawed for 1 h at room temperature before adding 70 µL of freshly prepared LDH solution (1 U/mL diaphorase, 143 µM APAD, 143 mM sodium L-lactate, 178.75 µM NBT, 0.7% Tween 20, 100 mM Tris-HCL) at pH 8.0. Plates were briefly shaken and incubated for 10 min (in the dark), and absorbance was read at 650 nm in an Envision plate reader (Perkin Elmer, Waltham, MA, USA).
as §1, §2

[4] = MTT-based cytotoxicity assay in HepG2 cells; assay type: cell-based; details: human, Hep G2 liver carcinoma cells (ATCC HB-8065); 72 h, MTT; read-out: Cytotoxic EC50 Hep G2
Description: as §1, §2
(§3) The EC50 determinations of the isolated compounds were performed with 12-point dose-response curves. Each concentration was evaluated in triplicate (concentration range of 50–0.0244 µM) in an MTT-based assay performed in liver carcinoma Hep G2 HB-8065 ATCC (American Type Culture Collection) cells as previously described by Annang et al., 2020 [29]. Cells (96-well plates were used with seeding at 1 × 10^4 cells/well) were cultured in 200 µL MEM medium per well at 37 °C, 5% CO2 for 24 h, after which the spent media were replaced with 200 µL MEM medium and 1 μL of test compounds. DMSO (0.5%), 8 mM methyl methanesulfonate and doxorubicin were used as positive, negative, and standard drug controls, respectively. After 72 h incubation with the test compounds at 37 °C, 100 µL of 0.5 mg/mL MTT solution diluted in MEM without phenol red was added to each well, and plates were briefly shaken and further incubated for 3 h at 37 °C. The supernatant in each well was carefully discarded and replaced with 100 µL of DMSO, and plates were gently shaken (to solubilize the formazan formed) before reading the absorbance at 570 nm in a Victor2 plate reader (Perkin Elmer, USA).

Hep G2 cells = assay: MTT-based cytotoxicity assay in HepG2 cells; assay type: cell-based; details: Hep G2 EC50 versus P. falciparum 3D7 EC50
Description: as §1, §2, §3

[5] = tested on: three different cell lines; parameters: method as in PMID 10656571; details: at 100 µM; cited from earlier work
[6] = Trypanosoma cruzi, TULAHUEN, L6, 96 h
[7] = 3D7, 72 h, LDH readout, 16-point curves in triplicate, read-out: Antiparasitic EC50 P. falciparum 3D7
[8] = 3D7 / TULAHUEN, read-out: antiparasitic EC50 against both parasites (range)
[9] = C3 ketone (1) versus C3 hydroxyl (2)

Row | Compound | EC50 at 72 h [1] [nM] | EC50 (T. cruzi Tulahuen C4; [6]) [nM] | activity against T. cruzi Tulahuen (in words) (T. cruzi Tulahuen C4) | activity against P. falciparum 3D7 (in words) (P. falciparum 3D7 [2]) | EC50 (P. falciparum 3D7 [3]; [7]) [nM] | EC50 at 72 h [4] [µM] | Selectivity index (SI), Hep G2 in comparison to activity in P. falciparum 3D7 (Hep G2 cells) | also measured
1 | Cc1cc(O)c2c(c1)O[C@]1(C)CC[C@H]3C(C)(C)[C@@H](O)CC[C@]3(C)[C@H]1C2 [Compound 6] | 2000 ± 100 | 7000 ± 200 | low or no biological activity | low or no biological activity | 4000 ± 100 |  |  | 
2 | C/C(=C\CCC1(C)C=Cc2c(cc3c(c2O)C(=O)OC3)O1)CCC(O)C(C)(C)O (stereo not shown) [Compound 5] | > 50000 | > 50000 | low or no biological activity | low or no biological activity | 8000 ± 200 |  |  | 
3 | CC(=CCc1c(O)cc2c(c1O)C(=O)OC2)CCC=C(C)CCCC(C)(C)OC1OC(CO)C(O)C(O)C1O (stereo not shown) [Compound 4] |  | 934 ± 88 |  |  | 243 ± 23 | 4.84 | 19.9 | 
4 | CC(=O)O[C@H]1CC[C@]2(C)[C@H]3Cc4c(O)cc5c(c4O[C@]3(C)CC[C@H]2C1(C)C)CN(CCO)C5=O [Compound 3, 8-epi-memnobotrin B] |  | 41770 ± 10 |  |  | 7170 ± 50 |  |  | fold lower potency against T. cruzi Tulahuen C4 in comparison to compound 1 (T. cruzi Tulahuen C4): 157 fold; fold lower potency against P. falciparum 3D7 in comparison to compound 1 (P. falciparum 3D7 [3]): 179 fold
5 | CC1(C)[C@@H](O)CC[C@]2(C)[C@H]3Cc4c(O)cc5c(c4O[C@]3(C)CC[C@@H]12)CN(CCO)C5=O [Compound 2, memnobotrin D] | 1390 ± 40 | 1370 ± 18 |  |  | 201 ± 16 | 4.53 | 22.5 | EC50 (P. falciparum 3D7 [3]; [8]): 40 to 1370 nM
6 | CC1(C)C(=O)CC[C@]2(C)[C@H]3Cc4c(O)cc5c(c4O[C@]3(C)CC[C@@H]12)CN(CCO)C5=O [Compound 1, Memnobotrin C] | < 98 | 226 |  |  | 40 ± 2 | 1.2 | 30 | EC50 (T. cruzi Tulahuen C4): 266 ± 24 nM; fold improvement of biological activity against T. cruzi Tulahuen C4 compared to compound 2 (T. cruzi Tulahuen C4; [9]): 5 fold; fold improvement of biological activity against P. falciparum 3D7 compared to compound 2 (P. falciparum 3D7 [3]; [9]): 5 fold; EC50 (P. falciparum 3D7 [3]; [8]): 40 to 1370 nM
7 | CC(=O)O[C@H]1CC[C@]2(C)[C@H]3Cc4c(O)cc5c(c4O[C@@]3(C)CC[C@H]2C1(C)C)CN(CCO)C5=O [Memnobotrin B] |  |  |  |  |  |  |  | cytotoxic activity, inhibition percentages [5]: 80–90%
8 | C=C1CC[C@H]2C(C)(C)C(=O)CC[C@]2(C)[C@H]1Cc1c(O)cc2c(c1O)C(=O)OC2 [Compound 7] | > 50000 | > 50000 | low or no biological activity | low or no biological activity | > 100000 |  |  | 
9 | CC1(C)[C@@H](O)CC[C@]2(C)[C@H]3Cc4c(O)cc5c(c4O[C@]3(C)CC[C@@H]12)C(=O)OC5 [Compound 8] |  | > 50000 | low or no biological activity | low or no biological activity | 17800 ± 100 |  |  | 
